# Measurements published in PubChem BioAssay AID977624 (Broad Institute, 2014).
# Results filed as inconclusive are left out. Calls of active or inactive are those of the source.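 The calls were made as follows: active = compound lowering the normal-ribosome reporter at least twice as much as the humanized-ribosome reporter, growth loss under a set limit; inconclusive = no clear call, values can overlap the other calls; inactive = the rest.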
# Tests used:
# Assay in all cases: growth inhibition of wild-type GFP E. coli, dose response, h34 mutant RFP, cherry-pick (AID 977624);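 also: wild-type GFP strain co-cultured with humanized h34 ribosome RFP strain in same well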
# [1] = test system: E. coli mixed culture (wild-type GFP + h34 RFP) total growth, OD600, 24 h; details: E. coli mixed culture (wild-type GFP + h34 RFP), 24 h
# [2] = test system: E. coli wild-type GFP strain growth, fluorescence, 24 h
# [3] = test system: E. coli h34 humanized ribosome mutant RFP strain growth, fluorescence, 24 h
# [4] = measured here: total OD600 growth
Structure (SMILES),"AC50 [1, 4] [µM]",AC50 [2],AC50 [3] [µM],other results
CCOc1ccccc1NC(=O)c1ccc2ccccc2c1,,,,"AC50 ([1]; measured here: OD600, test 1): 38.3 µM; AC50 ([2]; measured here: GFP wild-type, test 1): > 100 µM; AC50 ([3]; E. coli wild-type GFP strain growth, fluorescence, 24 h, measured here: RFP h34 mutant, test 1): > 100 µM"
CCc1ccc(C(=O)Nc2cccnc2Oc2ccc(Cl)cc2)cc1,> 100,> 100 µM (inactive),,
Cc1noc(C)c1S(=O)(=O)N(Cc1ccccc1)C(C)C,,,> 100,
COc1cc(OC)nc(Oc2ccccc2C(=O)Oc2ccc(C)cc2)n1,,> 100 µM (inactive),45.6,
O=S(=O)(c1ccccc1)N1CC[C@@H]2[C@H](CO)Nc3ccc(Br)cc3[C@@H]21,> 100,> 100 µM (inactive),,
O=C(CSc1ccccc1)Nc1cccc(NC(=O)c2ccco2)c1,> 100,> 100 µM (inactive),,
Cc1sc2ncnc(N3CCCC(C)C3)c2c1C (stereo not drawn),> 100,> 100 µM (inactive),,
c1ccc(-n2c(SCc3nc(-c4cccs4)no3)nnc2-c2ccco2)cc1,> 100,> 100 µM (inactive),,
O=C(c1ccc(N2CCCCC2)c([N+](=O)[O-])c1)N1CCN(c2ccccn2)CC1,,,> 100,
O=C(Nc1ccccc1N1CCN(C(=O)c2ccccc2)CC1)c1ccc([N+](=O)[O-])o1,,> 100 µM (inactive),1.97,
Cc1ccsc1C(=O)C1CCCN(Cc2cc(F)ccc2-n2cccn2)C1 (stereo not drawn),> 100,> 100 µM (inactive),,
CC(C)n1nnnc1C1c2ccccc2C(=O)N1CCOc1ccccc1 (stereo not drawn),,,5.87,
C[C@@H]1CCCCO[C@@H](CN(C)C(=O)c2ccccc2)[C@H](C)CN([C@@H](C)CO)C(=O)c2cc(NC(=O)c3ccccc3)ccc2O1,> 100,> 100 µM (inactive),,
COc1cc(C(N)=O)cc(Br)c1OCc1ccccc1,> 100,> 100 µM (inactive),,
COc1ccc(CCCc2nc3ccccc3[nH]2)cc1,> 100,> 100 µM (inactive),,
COc1ccc(NC(=O)c2cccs2)cc1C(=O)N1CCN(c2ccccc2)CC1,,,> 100,
Cc1ccc(C2(c3noc(CN(C)Cc4cccnc4)n3)CCCC2)cc1,> 100,> 100 µM (inactive),,
CS(=O)(=O)Nc1ccccc1C(=O)NCCSc1ccccc1,,,51.2,
O=C(Nc1cccc(Cl)c1)c1ccc(S(=O)(=O)NCC2CCCO2)cc1 (stereo not drawn),,> 100 µM (inactive),1.4,
c1ccc(CN2CCN(C3CCCSc4ccccc43)CC2)cc1 (stereo not drawn),50.3,> 100 µM (inactive),,
COc1ccc(NC(=O)Nc2cccc3c2O[C@H](CN(C)S(=O)(=O)c2ccc(Cl)cc2)[C@H](C)CN([C@@H](C)CO)C3=O)cc1,> 100,> 52 µM (inactive),,
Cc1cc(NC(=O)CN2CCN(c3cccc(Cl)c3)CC2)no1,29.5,> 100 µM (inactive),,
COc1cc(NC(=O)C(c2ccccc2)c2ccccc2)c(C(=O)O)cc1OC,,> 100 µM (inactive),36.4,
O=C(c1cnc(Cc2c[nH]c3ccccc23)c(I)c1)N1CCCCC1,> 100,> 100 µM (inactive),,
COc1cccc(NC(=O)CSc2nc3c(sc4ccccc43)c(=O)n2CCN(C)C)c1,,,> 100,
CC(NCc1ccc(S(N)(=O)=O)cc1)C(=O)Nc1cc([N+](=O)[O-])ccc1Cl (stereo not drawn),,> 100 µM (inactive),> 100,
CC(C)(C)c1ccc(-c2noc(CCC(=O)NCc3ccco3)n2)cc1,,,2.76,
